Earlier results in patent publication US20240050950A1, “GRADIENT-BASED MICROFLUIDIC CIRCUIT, DEVICE, AND METHOD FOR PERFORMING AN ASSAY” (priority 2020, published 2024).
Counter-ions that a name gives are not always drawn. Numbered stars: 1 amine (or outer) side, 2 acyl side, 3 side chain; on linkers, the order of the positions; unused ones are H or OH. Bridge positions count the residues as written; N and C are the ends. Square brackets hold non-standard residues; d marks the D form. Peptide text beside a SMILES is read from it. I, II: the chains in the order shown. Actinocin(9to1) = Cc1c2oc3c(C)ccc(C(=O)[*:1])c3nc-2c(C(=O)[*:2])c(N)c1=O; Phe(ol) = N[C@H](CO)Cc1ccccc1; NMeV = CN[C@H](C(=O)O)C(C)C; Aib = CC(C)(N)C(=O)O; Sar = CNCC(=O)O

Conditions: Table 1, antimicrobial agents/drugs; cited from earlier work

Q: For “4-Hydroxytamoxifen [4-Hydroxytamoxifen ((Z)-Afimoxifene)]”, which Molar volume is on record?
A: 354.6 ± 3.0 cm^3

Q: Which Molar volume does the source give for `OC[C@H]1NC[C@@H](O)[C@@H](O)[C@@H]1O` [1-Deoxymannojirimycin] here?
A: 112.0 ± 3.0 cm^3

Q: For `Cc1c2oc3c(C)c(N)cc(C(=O)N[C@@H]4C(=O)N[C@H](C(C)C)C(=O)N5CCC[C@H]5C(=O)N(C)CC(=O)N(C)[C@@H](C(C)C)C(=O)O[C@@H]4C)c3nc-2c(C(=O)N[C@@H]2C(=O)N[C@H](C(C)C)C(=O)N3CCC[C@H]3C(=O)N(C)CC(=O)N(C)[C@@H](C(C)C)C(=O)O[C@@H]2C)c(N)c1=O` [7-Aminoactinomycin D (7-ADD), 7-Aminoactinomycin D], which Molar volume is on record?
A: 877.3 ± 7.0 cm^3

Q: With `CC(=O)OCC1=C(C(=O)O)N2C(=O)[C@@H](N)[C@H]2SC1` [7-Aminocephalosporanic acid (7-ACA), 7-Aminocephalosporanic acid] as the compound, how does the Molar volume read?
A: 170.0 ± 5.0 cm^3

Q: With `CC1=C(C(=O)O)N2C(=O)[C@@H](N)[C@H]2SC1` [7-Aminodesacetoxycephalosporanic acid] as the compound, how does the Molar volume read?
A: 134.0 ± 5.0 cm^3

Q: With `CC(=O)O[C@@]12CO[C@@H]1C[C@H](O)[C@@]1(C)C(=O)[C@H](O)C3=C(C)[C@@H](O)C[C@@](O)([C@@H](OC(=O)c4ccccc4)[C@H]21)C3(C)C` [10-Deacetylbaccatin III] as the compound, how does the Molar volume read?
A: 385.5 ± 5.0 cm^3

Q: For `C=CCNC1=C2C[C@@H](C)C[C@H](OC)[C@H](O)[C@@H](C)/C=C(\C)[C@H](OC(N)=O)[C@@H](OC)/C=C\C=C(/C)C(=O)NC(=CC1=O)C2=O` [17-(Allylamino)-17-demethoxygeldanamycin], which Molar volume is on record?
A: 483.3 ± 5.0 cm^3

Q: For `CC1(C)S[C@@H]2[C@H](N)C(=O)N2[C@H]1C(=O)O` [(+)-6-Aminopenicillanic acid (6-APA), (+)-6-Aminopenicillanic acid], which Molar volume is on record?
A: 142.0 ± 5.0 cm^3

Q: For `CC[C@@]1(O)C(=O)OCc2c1cc1n(c2=O)Cc2cc3ccccc3nc2-1` [(S)-(+)-Camptothecin (Camptothecin), (S)-(+)-Camptothecin], which Molar volume is on record?
A: 230.2 ± 5.0 cm^3

Q: With `Cc1c2oc3c(C)ccc(C(=O)N[C@@H]4C(=O)N[C@H](C(C)C)C(=O)N5CCC[C@H]5C(=O)N(C)CC(=O)N(C)[C@@H](C(C)C)C(=O)O[C@@H]4C)c3nc-2c(C(=O)N[C@@H]2C(=O)N[C@H](C(C)C)C(=O)N3CCC[C@H]3C(=O)N(C)CC(=O)N(C)[C@@H](C(C)C)C(=O)O[C@@H]2C)c(N)c1=O` [Actinomycin D] (I: T[dV]P[Sar][NMeV] / II: T[dV]P[Sar][NMeV]; ester I:1-I:C, II:1-II:C; linker I:N-II:N via Actinocin(9to1)) as the compound, how does the Molar volume read?
A: 880.6 ± 7.0 cm^3

Q: For `CCCCC[C@H](CC(=O)NO)C(=O)N[C@H](C(=O)N1CCC[C@H]1CO)C(C)C` [Actinonin], which Molar volume is on record?
A: 338.1 ± 3.0 cm^3

Q: For `Nc1ncnc2c1ncn2[C@@H]1O[C@H](CO)[C@@H](O)[C@@H]1O` [Adenine 9-β-D-arabinofuranoside], which Molar volume is on record?
A: 128.1 ± 7.0 cm^3

Q: For `CC(=O)NC(C)(C)C(=O)N1CCC[C@H]1C(=O)NC(C)(C)C(=O)N[C@@H](C)C(=O)NC(C)(C)C(=O)N[C@@H](C)C(=O)N[C@@H](CCC(N)=O)C(=O)NC(C)(C)C(=O)N[C@H](C(=O)NC(C)(C)C(=O)NCC(=O)N[C@@H](CC(C)C)C(=O)NC(C)(C)C(=O)N1CCC[C@H]1C(=O)N[C@H](C(=O)NC(C)(C)C(=O)NC(C)(C)C(=O)N[C@@H](CCC(=O)O)C(=O)N[C@@H](CCC(N)=O)C(=O)N[C@H](CO)Cc1ccccc1)C(C)C)C(C)C` [Alamethicin] (Ac-[Aib]P[Aib]A[Aib]AQ[Aib]V[Aib]GL[Aib]PV[Aib][Aib]EQ[Phe(ol)]), which Molar volume is on record?
A: 1583.4 ± 3.0 cm^3

Q: Which Molar volume does the source give for `CC(C)C[C@@H](N)[C@H](O)C(=O)N[C@H](C(=O)N[C@H](C(=O)N[C@@H](CC(=O)O)C(=O)O)C(C)C)C(C)C` [Amastatin] here?
A: 386.4 ± 3.0 cm^3

Q: With `NCC[C@H](O)C(=O)N[C@@H]1C[C@H](N)[C@@H](O[C@H]2O[C@H](CN)[C@@H](O)[C@H](O)[C@H]2O)[C@H](O)[C@H]1O[C@H]1O[C@H](CO)[C@@H](O)[C@H](N)[C@H]1O` [Amikacin] as the compound, how does the Molar volume read?
A: 363.9 ± 5.0 cm^3

Q: Which Molar volume does the source give for `CC1(C)S[C@@H]2[C@H](NC(=O)[C@H](N)c3ccc(O)cc3)C(=O)N2[C@H]1C(=O)O` [Amoxicillin] here?
A: 236.2 ± 5.0 cm^3

Q: For `C[C@@H]1[C@H](O)[C@@H](C)/C=C/C=C/C=C/C=C/C=C/C=C/C=C/[C@H](O[C@@H]2O[C@H](C)[C@@H](O)[C@H](N)[C@@H]2O)C[C@@H]2O[C@](O)(C[C@@H](O)C[C@@H](O)[C@H](O)CC[C@@H](O)C[C@@H](O)CC(=O)O[C@H]1C)C[C@H](O)[C@H]2C(=O)O` [Amphotericin B (Fungizone), Amphotericin B], which Molar volume is on record?
A: 689.4 ± 5.0 cm^3

Q: Which Molar volume does the source give for `CC[C@H]1OC(=O)[C@H](C)[C@@H](O[C@H]2C[C@@](C)(OC)[C@@H](O)[C@H](C)O2)[C@H](C)[C@@H](O[C@@H]2O[C@H](C)C[C@H](N(C)C)[C@H]2O)[C@@]2(C)C[C@@H](C)[C@@]3(O[C@@]1(C)[C@H](O)[C@H]3C)O2` [Anhydroerythromycin A] here?
A: 590.7 ± 5.0 cm^3

Q: Which Molar volume does the source give for `COc1ccc(C[C@H]2NC[C@H](O)[C@H]2OC(C)=O)cc1` [Anisomycin (or, Flagecidin), Anisomycin] here?
A: 218.6 ± 5.0 cm^3

Q: Which Molar volume does the source give for `C[C@@]1(CO)[C@H](O)CC[C@@]2(C)[C@H]1CC[C@H]1C[C@@H]3C[C@@]12CC[C@]3(O)CO` [Aphidicolin] here?
A: 275.9 ± 5.0 cm^3

Same assay, conditions: Table 2, anticancer drugs; cited from earlier work

Q: With `CC(=O)O[C@H]1CC[C@@]2(C)C(=CC[C@@H]3[C@@H]2CC[C@]2(C)C(c4cccnc4)=CC[C@@H]32)C1` [Abiraterone acetate (Zytiga), Abiraterone acetate] as the compound, how does the Molar volume read?
A: 343.0 ± 5.0 cm^3

Q: Which Molar volume does the source give for `Cc1c2oc3c(C)ccc(C(=O)N[C@@H]4C(=O)N[C@H](C(C)C)C(=O)N5CCC[C@H]5C(=O)N(C)CC(=O)N(C)[C@@H](C(C)C)C(=O)O[C@@H]4C)c3nc-2c(C(=O)N[C@@H]2C(=O)N[C@H](C(C)C)C(=O)N3CCC[C@H]3C(=O)N(C)CC(=O)N(C)[C@@H](C(C)C)C(=O)O[C@@H]2C)c(N)c1=O` [Actinomycin D] (I: T[dV]P[Sar][NMeV] / II: T[dV]P[Sar][NMeV]; ester I:1-I:C, II:1-II:C; linker I:N-II:N via Actinocin(9to1)) here?
A: 880.6 ± 7.0 cm^3

Q: With `CO[C@H]1C[C@@H]2CC[C@@H](C)[C@@](O)(O2)C(=O)C(=O)N2CCCC[C@H]2C(=O)O[C@H]([C@H](C)C[C@@H]2CC[C@@H](OCCO)[C@H](OC)C2)CC(=O)[C@H](C)/C=C(\C)[C@@H](O)[C@@H](OC)C(=O)[C@H](C)C[C@H](C)/C=C/C=C/C=C/1C` [Afinitor (Everolimus), Everolimus] as the compound, how does the Molar volume read?
A: 811.2 ± 5.0 cm^3

Q: With `CC(C)Cn1cnc2c(N)nc3ccccc3c21` [Aldara (Imiquimod), Imiquimod] as the compound, how does the Molar volume read?
A: 187.7 ± 7.0 cm^3

Q: For `Nc1nc2[nH]cc(CCc3ccc(C(=O)N[C@@H](CCC(=O)O)C(=O)O)cc3)c2c(=O)[nH]1` [Alimta (Pemetrexed Disodium), Pemetrexed Disodium], which Molar volume is on record?
A: 268.0 ± 7.0 cm^3

Q: With `COc1c(OCCCN2CCOCC2)ccc2c1N=C(NC(=O)c1cnc(N)nc1)N1CCN=C21` [Aliqopa (Copanlisib Hydrochloride), Copanlisib Hydrochloride] as the compound, how does the Molar volume read?
A: 317.6 ± 7.0 cm^3

Q: With `O=C1c2cccc3c2[C@H](CCC3)CN1[C@@H]1CN2CCC1CC2` [Aloxi (Palonosetron Hydrochloride), Palonosetron Hydrochloride] as the compound, how does the Molar volume read?
A: 238.6 ± 5.0 cm^3

Q: Which Molar volume does the source give for `NCCCNCCSP(=O)(O)O` [Amifostine] here?
A: 156.6 ± 3.0 cm^3

Q: For `CC(C)(C#N)c1cc(Cn2cncn2)cc(C(C)(C)C#N)c1` [Anastrozole], which Molar volume is on record?
A: 270.2 ± 7.0 cm^3

Q: With `CNC(=O)c1ccc(N2C(=S)N(c3cnc(C#N)c(C(F)(F)F)c3)C(=O)C23CCC3)cc1F` [Apalutamide] as the compound, how does the Molar volume read?
A: 300.1 ± 5.0 cm^3

Same assay, conditions: Table 3, antifungal drugs and other molecules; cited from earlier work

Q: Which Molar volume does the source give for `c1ccc2[nH]c(-c3cscn3)nc2c1` [2-(4-Thiazolyl)benzimidazole] here?
A: 143.0 ± 3.0 cm^3

Q: For `C=CCc1ccc(O)c(-c2cc(CC=C)ccc2O)c1` [5,5′-Diallyl-2,2′-biphenyldiol], which Molar volume is on record?
A: 240.4 ± 3.0 cm^3

Q: With `O=[N+]([O-])C1(Br)COCOC1` [5-Bromo-5-nitro-1,3-dioxane] as the compound, how does the Molar volume read?
A: 115.3 ± 5.0 cm^3
